The first experiment has as its target T1, Phosphodiesterase 4 (Homo sapiens, UniProt P27815+Q08499+Q07343+Q08493). The experiment is described as follows: In vitro inhibitory concentration against phosphodiesterase 4. In kind it is protein assay.
As to `CCc1nnc(Cc2c(Cl)cncc2Cl)c2cc(OC3CCCC3)c(OC)cc12`, the IC50 (as a rule, the concentration at which inhibition is half-maximal) worked out at 75 nM.
In turn, `COc1cc2c(C)nnc(Cc3c(Cl)cncc3Cl)c2cc1OC1CCCC1` came in with an IC50 of 146 nM.
Same read-out and setting: next, `COc1ccc2c(Cc3c(Cl)cncc3Cl)nncc2c1OC1CCCO1` (stereo unspecified): 153 nM.

A further experiment has as its target T1, Phosphodiesterase 4. The experiment is described as follows: Inhibitory concentration against phosphodiesterase 4. In kind it is protein assay.
Regarding `CCc1nnc(Cc2c(Cl)cncc2Cl)c2cc(OC3CCCC3)c(OC)cc12`, the “Log IC50” value is given as -7.12.
On the same count and under the same terms, the value for `COc1ccc2c(Cc3c(Cl)cncc3Cl)nncc2c1OCCCCCc1ccccc1` was -7.25; that for `COc1cc2c(C)nnc(Cc3c(Cl)cncc3Cl)c2cc1OC1CCCC1` was -6.84.

The record behind these values is ChEMBL document CHEMBL1136125, “Comparative molecular field analysis (CoMFA) of phthalazine derivatives as phosphodiesterase IV inhibitors” (Bioorg Med Chem Lett, 2003).
